Values belong to the compound of their own block, whether it stands above or below them. *1 amine or outer side, *2 acyl side, *3 side chain or, on linkers, in order; H or OH if unused. Where a SMILES comes first, the peptide text is derived from it. [ ]: non-standard residue; d: D form. X2 = N=C(NCCC[C@H](N[*:1])C(=O)[*:2])NCCC[C@H]1O[C@@H](n2cnc3c(N)ncnc32)[C@H](O)[C@@H]1O; Gly(N-(CH2)3-guanidino) = N=C(N)NCCCNCC(=O)O; X1 = N=C(CCl)NCCCN(CC(=O)[*:2])[*:1]; Gly(N-CH2CH2OH) = O=C(O)CNCCO; Nleu = CC(C)CNCC(=O)O; Nlys = NCCCCNCC(=O)O; Sar = CNCC(=O)O
Columns and labels:
[1] = target: T1, Protein arginine N-methyltransferase 1 (Homo sapiens, UniProt Q99873); assay: Inhibition of 6His-tagged PRMT1 (11 to 353 residues) (unknown origin) extracted from Escherichia coli BL21 (DE3) cells
T1 sequence (Q99873 whole entry, the tested form may be a part): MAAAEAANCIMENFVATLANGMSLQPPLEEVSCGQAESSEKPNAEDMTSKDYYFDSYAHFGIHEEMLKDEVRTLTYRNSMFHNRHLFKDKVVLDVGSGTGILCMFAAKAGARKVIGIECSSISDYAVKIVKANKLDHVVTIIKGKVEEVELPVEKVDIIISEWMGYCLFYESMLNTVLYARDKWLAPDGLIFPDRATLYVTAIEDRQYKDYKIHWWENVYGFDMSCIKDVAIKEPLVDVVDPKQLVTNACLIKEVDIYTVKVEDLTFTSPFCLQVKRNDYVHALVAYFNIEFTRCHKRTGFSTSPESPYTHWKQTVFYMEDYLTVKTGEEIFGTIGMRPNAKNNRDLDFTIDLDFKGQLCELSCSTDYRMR

[2] = target: T1, Protein arginine N-methyltransferase 1; assay: Inhibition of PRMT1 (unknown origin)
[3] = target: Protein arginine N-methyltransferase 5 (Homo sapiens, UniProt O14744); assay: Inhibition of PRMT5 (unknown origin)
Chain of Protein arginine N-methyltransferase 5 (O14744 whole entry): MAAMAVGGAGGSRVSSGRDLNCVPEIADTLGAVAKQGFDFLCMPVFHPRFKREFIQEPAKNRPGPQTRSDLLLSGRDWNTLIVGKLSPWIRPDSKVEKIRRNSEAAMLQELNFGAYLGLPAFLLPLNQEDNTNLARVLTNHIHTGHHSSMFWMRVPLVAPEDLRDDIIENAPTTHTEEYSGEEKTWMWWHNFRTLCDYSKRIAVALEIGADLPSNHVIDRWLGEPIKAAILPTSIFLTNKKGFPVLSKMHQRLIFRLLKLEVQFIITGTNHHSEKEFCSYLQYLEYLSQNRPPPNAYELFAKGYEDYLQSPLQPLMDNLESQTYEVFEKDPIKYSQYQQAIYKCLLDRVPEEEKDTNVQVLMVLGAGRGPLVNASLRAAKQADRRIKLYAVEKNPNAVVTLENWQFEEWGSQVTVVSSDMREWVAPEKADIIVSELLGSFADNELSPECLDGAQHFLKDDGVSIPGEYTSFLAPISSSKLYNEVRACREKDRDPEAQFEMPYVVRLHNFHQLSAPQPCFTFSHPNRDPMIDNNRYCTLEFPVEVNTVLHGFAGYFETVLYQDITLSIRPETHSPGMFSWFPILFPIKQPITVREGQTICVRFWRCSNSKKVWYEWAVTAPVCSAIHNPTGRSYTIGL

[4] = target: T2, Protein arginine N-methyltransferase 7 (Homo sapiens, UniProt Q9NVM4); assay: Inhibition of PRMT7 (unknown origin)
T2 sequence (Q9NVM4 whole entry): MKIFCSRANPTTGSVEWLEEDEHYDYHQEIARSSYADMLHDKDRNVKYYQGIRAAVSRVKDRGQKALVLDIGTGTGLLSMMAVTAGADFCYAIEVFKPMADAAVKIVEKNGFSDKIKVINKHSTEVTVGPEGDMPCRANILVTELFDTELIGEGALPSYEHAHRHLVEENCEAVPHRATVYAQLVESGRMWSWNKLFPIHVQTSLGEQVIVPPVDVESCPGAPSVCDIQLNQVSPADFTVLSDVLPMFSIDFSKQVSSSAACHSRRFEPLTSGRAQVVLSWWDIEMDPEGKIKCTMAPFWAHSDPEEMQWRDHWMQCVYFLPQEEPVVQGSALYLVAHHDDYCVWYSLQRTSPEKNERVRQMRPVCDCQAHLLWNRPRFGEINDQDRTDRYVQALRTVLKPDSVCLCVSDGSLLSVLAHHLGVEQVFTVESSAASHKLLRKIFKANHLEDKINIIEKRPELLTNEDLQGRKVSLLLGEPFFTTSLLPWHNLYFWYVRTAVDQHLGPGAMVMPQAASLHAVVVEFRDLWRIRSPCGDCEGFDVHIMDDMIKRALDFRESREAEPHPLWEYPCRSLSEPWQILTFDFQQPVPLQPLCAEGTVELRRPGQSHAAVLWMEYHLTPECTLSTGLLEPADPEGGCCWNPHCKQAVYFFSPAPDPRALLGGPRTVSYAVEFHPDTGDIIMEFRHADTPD

[5] = target: T3, Histone-arginine methyltransferase CARM1 (Homo sapiens, UniProt Q86X55); assay: Inhibition of PRMT4 (unknown origin)
T3 sequence (Q86X55 whole entry): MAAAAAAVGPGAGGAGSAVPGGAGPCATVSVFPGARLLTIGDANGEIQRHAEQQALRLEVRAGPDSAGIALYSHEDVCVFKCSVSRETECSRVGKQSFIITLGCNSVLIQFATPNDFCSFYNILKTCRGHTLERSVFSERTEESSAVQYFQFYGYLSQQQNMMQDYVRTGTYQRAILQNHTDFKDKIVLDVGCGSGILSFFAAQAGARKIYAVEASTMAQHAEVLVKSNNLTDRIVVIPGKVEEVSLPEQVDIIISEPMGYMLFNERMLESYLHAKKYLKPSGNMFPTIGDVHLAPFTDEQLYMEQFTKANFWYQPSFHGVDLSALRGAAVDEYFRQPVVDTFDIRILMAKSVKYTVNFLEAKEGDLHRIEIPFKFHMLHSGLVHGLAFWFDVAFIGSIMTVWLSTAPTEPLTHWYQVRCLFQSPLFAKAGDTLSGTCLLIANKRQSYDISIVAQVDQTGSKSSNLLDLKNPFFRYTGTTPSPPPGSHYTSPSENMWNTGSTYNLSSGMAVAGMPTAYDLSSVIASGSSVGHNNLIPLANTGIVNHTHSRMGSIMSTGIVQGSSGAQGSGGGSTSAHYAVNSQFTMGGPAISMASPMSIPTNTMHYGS

[6] = target: T1, Protein arginine N-methyltransferase 1; assay: Inhibition of His-tagged PRMT1 (unknown origin) extracted from Escherichia coli BL21 (DE3) cells
[7] = target: Protein arginine N-methyltransferase 6 (Homo sapiens, UniProt Q96LA8); assay: Inhibition of PRMT6 (unknown origin)
Chain of Protein arginine N-methyltransferase 6 (Q96LA8 whole entry): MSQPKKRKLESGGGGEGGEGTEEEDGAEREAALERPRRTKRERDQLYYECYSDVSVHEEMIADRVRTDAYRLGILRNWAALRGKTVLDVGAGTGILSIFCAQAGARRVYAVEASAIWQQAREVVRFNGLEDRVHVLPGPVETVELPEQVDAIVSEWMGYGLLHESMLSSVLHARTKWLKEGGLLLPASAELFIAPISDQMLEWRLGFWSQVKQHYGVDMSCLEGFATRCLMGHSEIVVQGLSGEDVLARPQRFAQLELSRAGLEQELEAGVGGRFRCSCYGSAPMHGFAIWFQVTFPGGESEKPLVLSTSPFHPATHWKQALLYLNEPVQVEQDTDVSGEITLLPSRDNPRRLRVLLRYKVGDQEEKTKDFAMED

[8] = system: HCT-116; assay: Cytotoxicity against human HCT-116 cells assessed as reduction in cell viability; format: functional, cell-based
[9] = system: MDA-MB-468; assay: Cytotoxicity against human MDA-MB-468 cells assessed as reduction in cell viability incubated for 72 hrs by cell-titer blue assay; format: functional, cell-based; details: MDA-MB-468, 72 h
[10] = target: T1, Protein arginine N-methyltransferase 1; assay: Inhibition of human PRMT1 assessed as methyltransferase activity using Histone H4 /H4 (1-15)-Biotin as substrate

SMILES: NS(=O)(=O)c1ccc(CCNC/C=C/c2ccccc2)cc1
- IC50 [1]: 26.2 µM

SMILES: CC(=O)N(CCO)CC(=O)NCC(=O)N(CCCNC(=N)CCl)CC(=O)NCC(=O)N(CCCCN)CC(=O)NCC(=O)NCC(=O)N(CCCCN)CC(=O)NCC(=O)N(CC(=O)NCC(=O)N(CCCCN)CC(=O)NCC(=O)NCC(=O)N(C)CC(=O)N(CCCCN)CC(N)=O)CC(C)C (Ac-[Gly(N-CH2CH2OH)]G[X1]G[Nlys]GG[Nlys]G[Nleu]G[Nlys]GG[Sar][Nlys]-NH2)
- IC50 [8]: > 500 µM
- IC50 [9]: > 500 µM
- IC50 [10]: 8.73 µM

SMILES: CC(C)CN(CC(=O)NCC(=O)N(CCCCN)CC(=O)NCC(=O)NCC(=O)N(C)CC(=O)N(CCCCN)CC(N)=O)C(=O)CNC(=O)CN(CCCCN)C(=O)CNC(=O)CNC(=O)CN(CCCCN)C(=O)CNC(=O)CN(CCCNC(=N)N)C(=O)CNC(=O)CNCCO (H-[Gly(N-CH2CH2OH)]G[Gly(N-(CH2)3-guanidino)]G[Nlys]GG[Nlys]G[Nleu]G[Nlys]GG[Sar][Nlys]-NH2)
- IC50 [2]: 396 µM

SMILES: CC(C)CN(CC(=O)NCC(=O)N(CCCCN)CC(=O)NCC(=O)NCC(=O)N(C)CC(=O)N(CCCCN)CC(N)=O)C(=O)CNC(=O)CN(CCCCN)C(=O)CNC(=O)CNC(=O)CN(CCCCN)C(=O)CNC(=O)CN(CCCNC(=N)CCl)C(=O)CNC(=O)CNCCO (H-[Gly(N-CH2CH2OH)]G[X1]G[Nlys]GG[Nlys]G[Nleu]G[Nlys]GG[Sar][Nlys]-NH2)
- IC50 [8]: > 500 µM
- IC50 [9]: > 500 µM

Second part, the compound after the results:

- IC50 [2]: 5.9 µM
- IC50 [3]: 0.0004 µM
- IC50 [4]: 0.0004 µM
- IC50 [5]: 0.0028 µM
SMILES: N=C(N)NCCC[C@H](NC(=O)CN)C(=O)N[C@@H](CCCNC(=N)NCCCSC[C@H]1O[C@@H](n2cnc3c(N)ncnc32)[C@H](O)[C@@H]1O)C(N)=O

- IC50 [6]: 0.27 µM
SMILES: O=C1Nc2cnc(Nc3ccc(N4CCC(O)CC4)cc3)nc2N2c3ccccc3C[C@@H]12

- IC50 [2]: 3 µM
SMILES: N=C(NCCCSC[C@H]1O[C@@H](n2cnc3c(N)ncnc32)[C@H](O)[C@@H]1O)NCCC[C@H](N)C(N)=O

- IC50 [2]: 5.36 µM
- IC50 [7]: 11 µM
SMILES: CC(=O)N[C@@H](CO)C(=O)NCC(=O)N[C@@H](CCCNC(=N)NCCC[C@H]1O[C@@H](n2cnc3c(N)ncnc32)[C@H](O)[C@@H]1O)C(=O)NCC(=O)N[C@@H](CCCCN)C(=O)NCC(=O)NCC(=O)N[C@@H](CCCCN)C(N)=O (Ac-SG[X2]GKGGK-NH2)
